Data from PMC4661406, “Uncovering the Mechanism of Aggregation of Human Transthyretin” (The Journal of Biological Chemistry, 2015).
Where a SMILES comes first, the peptide text is derived from it. [ ]: non-standard residue; d: D form. NMeE = CN[C@@H](CCC(=O)O)C(=O)O; NMeA = CN[C@@H](C)C(=O)O

Experiments:
[1] = test system: transthyretin amyloidosis; details: background statement, refs 16-18 cited in the next sentence; cited from earlier work
Text: Currently, there is no cure for transthyretin amyloidosis, and the treatment for familial cases of ATTR is liver transplantation. […] Several other therapeutics are currently in clinical trials, including other tetramer stabilizers such as diflunisal and RNAi therapies that cause a decrease in the production of TTR protein ([16][–][18]). Additional approaches are needed to prevent ATTR, and here we explore the use of peptide inhibitors that block aggregation of TTR.

[2] = molecular target: T1, monomeric variant MTTR (Homo sapiens, UniProt P02766, F107M/L130M); assay: Binding of inhibitors to MTTR (unbound fraction by HPLC-MS); details: apparent affinity for all MTTR species in solution (binding to aggregated species not excluded), 0.5 mg/ml MTTR with increasing combined R4PAm and R4PTm, 37 °C, 18 h, 10 mM sodium acetate pH 7.4, 100 mM KCl, 10 mM EDTA, one-site specific binding (GraphPad Prism 6), read-out: apparent binding constant (KD)
T1 construct: made in house; host or cells: Escherichia coli Rosetta(DE3) pLysS, pET24(+) vector
Method: The soluble unbound fraction of inhibitors after incubation with the monomeric variant MTTR ([40]) was quantified by HPLC-MS. Samples were made as follows. Soluble TTR at a fixed concentration of 0.5 mg/ml was incubated at 37 °C for 18 h in 10 mM sodium acetate (pH 7.4), 100 mM KCl, 10 mM EDTA with increasing quantities of combined R4PAm and R4PTm. The aggregated fraction was removed by 0.22-μm filtration. The protein fraction containing soluble TTR and inhibitor-bound complexes was then removed by acid precipitation with 1% acetic acid and consecutive ultracentrifugation at 90,000 rpm for 30 min. Neither 0.22-μm filtration nor acid precipitation affected the concentration of the unbound soluble fraction of the peptide inhibitors (data not shown). The unbound soluble fraction of inhibitors was subjected to size exclusion HPLC followed by mass spectrometry. […]
(§1) FIGURE 6. […] A, midpoint temperatures of the thermal unfolding transition (Tm) of wild-type TTR at different conditions were determined by differential scanning calorimetry. […] The unbound fraction of inhibitors was analyzed by HPLC-MS. […] TTR aggregation (TTR agg.) was measured by absorbance at 400 nm with the initial protein amount normalized to 100%. mAU, milli-absorbance units; N.A., not applicable. […]

[3] = Fibril formation of TTR peptides in isolation (TEM); assay type: physicochemical; details: PBS pH 7.4, 37 °C, no shaking; TEM after 7 days (methods: incubated 2 weeks); peptide concentration 0.5-17 mM
Method: Following dissolution, samples were filtered through a 0.2-μm filter and incubated at 37 °C with no shaking for 2 weeks.
TEM was performed to visualize the fibril formation of TTR proteins and peptides. 5 μl of the sample was spotted onto freshly glow-discharged, carbon-coated EM grids (Ted Pella, Redding, CA). After 3 min of incubation, grids were rinsed three times with 5 μl of distilled water and then stained with 2% uranyl acetate for 2 min. Grids were examined with a T12 Quick CryoEM and CryoET (FEI) transmission electron microscope at an accelerating voltage of 120 kV. Digital images were recorded using a Gatan 2,048 × 2,048 charge-coupled device camera.
FIGURE 2. β-Strand F as an aggregation-driving segment in TTR suitable for aggregation inhibitor design. […] Histograms show percentage of TTR aggregation using WT TTR to normalize to 100%. The aggregation was measured by absorbance of the samples at 400 nm after 4 days of incubation at 37 °C and pH 4.3 with no shaking. […]
FIGURE 3. β-Strand H as a second aggregation-driving segment suitable as a target for aggregation inhibitor design. A, residue solvent-accessible surface area (ASA; Å^2) of TTR was calculated by Areaimol using the structure of WT TTR in three different conformations: tetramer (blue), dimer (black), and monomer (green). […]

[4] = test system: WT TTR; assay: Differential scanning calorimetry of WT TTR with T4 and/or inhibitors; assay type: binding, human; details: versus WT TTR alone (no T4 before addition); 5:1 molar ratio to TTR monomer; 3.5 M guanidinium chloride, pH 4.3
Method: Data were taken with a DSC-II differential scanning calorimeter (Calorimetry Sciences Corp., Lindon, UT). The midpoint temperatures of the thermal unfolding transition (Tm) of wild type and mutants were determined. Thermal denaturation of TTR was irreversible under our conditions ([1], [38]), and absolute thermodynamic parameters were not determined. […] The experiments were performed in 3.5 M guanidinium hydrochloride to depress melting below 100 °C; this guanidinium concentration also solubilized thyroxine. Protein samples were thawed on ice and filtered, and the concentration was measured by UV-visible absorption. Protein samples were diluted to 1 mg/ml in 3.5 M guanidinium chloride, 100 mM sodium acetate (pH 4.3), 100 mM potassium chloride, 1 mM EDTA. A volume of 700 μl of each protein sample was prepared in a 1.5-ml microcentrifuge tube and degassed for 5 min under vacuum while stirring. The reference cell contained only buffer components. […]
as §1

Kd [2] [µM] | Compound | fibril formation in isolation [3] | further results
– | O=C(O)c1ccc2nc(-c3cc(Cl)cc(Cl)c3)oc2c1 [Tafamidis] | – | disease progression [1]: delays progression of the disease
19.3 ± 6.7 | CC(C)[C@H](NC(=O)[C@@H](NC(=O)[C@H](C)N(C)C(=O)[C@@H](NC(=O)[C@@H](NC(=O)[C@H](CO)NC(=O)[C@H](Cc1ccc(O)cc1)NC(=O)[C@H](CO)NC(=O)[C@H](Cc1ccc(O)cc1)NC(=O)[C@@H]1CCCN1C(=O)[C@H](CCCNC(=N)N)NC(=O)[C@H](CCCNC(=N)N)NC(=O)[C@H](CCCNC(=N)N)NC(=O)[C@@H](N)CCCNC(=N)N)[C@@H](C)O)[C@@H](C)O)C(C)C)C(=O)N[C@H](C(=O)N[C@@H](CC(N)=O)C(=O)O)[C@@H](C)O [R4PTm] (H-RRRRPYSYSTT[NMeA]VVTN-OH) | – | –
– | AEVVFT [6-residue TTR segment 91-96 from strand F] | form fibrils in solution by self-aggregation | –
17.9 ± 6.1 | CC(C)[C@H](NC(=O)[C@@H](NC(=O)[C@H](CCC(=O)O)N(C)C(=O)[C@H](C)NC(=O)[C@H](Cc1c[nH]cn1)NC(=O)[C@H](CCC(=O)O)NC(=O)[C@H](Cc1c[nH]cn1)NC(=O)[C@H](Cc1ccccc1)NC(=O)[C@@H]1CCCN1C(=O)[C@H](CCCNC(=N)N)NC(=O)[C@H](CCCNC(=N)N)NC(=O)[C@H](CCCNC(=N)N)NC(=O)[C@@H](N)CCCNC(=N)N)C(C)C)C(=O)N[C@@H](Cc1ccccc1)C(=O)N[C@H](C(=O)N[C@@H](C)C(=O)O)[C@@H](C)O [R4PAm] (H-RRRRPFHEHA[NMeE]VVFTA-OH) | – | –
– | NC(Cc1cc(I)c(Oc2cc(I)c(O)c(I)c2)c(I)c1)C(=O)O (stereo not drawn) [T4, thyroxine] | – | increase in Tm of WT TTR on addition [4]: 10.8 °C
– | TAVVTN [6-residue TTR segment 119-124 from strand H] | form fibrils in solution by self-aggregation | –
